Reference: patent EP0108285B1, “Antiviral purine derivatives” (THE WELLCOME FOUNDATION LIMITED, priority 1982, dated 1984)
≈ marks a conversion by molar mass, not a printed value.

What was measured:
[1] = physchem; format: physicochemical; conditions: water
Source text: This improved water-solubility enables 6-deoxyacyclovir to be used in a greater variety of aqueous pharmaceutical formulations which require some solubilisation of the drug.

[2] = Toxicity study in beagle dogs, per os; format: in vivo; conditions: 40mg/kg/day for 5 consecutive days, sacrificed at end of treatment or after a 2-week post-dose period
Protocol: Two male and 2 female beagle dogs were given 6-deoxyacyclovir per os ([…] daily for 5 consecutive days) at a dose level of 40mg/kg/day. There were no effects in 1 male and 1 female sacrificed at the end of the treatment period or in 1 male and 1 female sacrificed after a 2-week post-dose period.

[3] = molecular target: T1, xanthine oxidase (Bos taurus, UniProt P80457); assay: Oxidation by xanthine oxidase (enzyme studies); format: biochemical; conditions: xanthine oxidase from bovine milk; compared with 2-aminopurine
T1 construct: xanthine oxidase from bovine milk; from tissue; host or cells: bovine milk
Source text: The discovery that the 6-hydrogen purine above can be readily converted into its corresponding 6-hydroxy analogue is surprising since in previous studies with xanthine oxidase from bovine milk (H. Lettre et al (1967) Biochem. Pharmacol., 16, 1747-1755; T. A. Krenitsky et al (1972) Arch. Biophys., 150, 585-599), it was shown that 9-substitution obliterates or greatly diminishes the rate at which a variety of purines are oxidised.

[4] = tested on: ICI strain of herpes simplex virus Type 1; assay: Antiviral activity in mice infected intracerebrally with herpes simplex virus; format: in vivo, CD1 mice; conditions: for Mean Reciprocal Survival times / Survival Times (Days): 100mg/kg/dose; for Mean Reciprocal Survival times: virus controls 0.407; for Survival Times (Days): 2-3 hours after infection and twice daily for 4 days, observed over 14 days, groups of 10 mice
Protocol: The mice were divided into groups of 10, one group acting as untreated virus controls and the other groups receiving respectively (A) acyclovir at 100mg/kg/dose (i) subcutaneously (s.c.) (ii) orally (iii) intraperitoneally (i.p.) (B) the compound of Example 1 (6-deoxyacyclovir) at 100mg/kg/dose i) subcutaneously (s.c.) ii) orally iii) intraperitoneally (i.p.). The treatment groups received dosages of the drug 2-3 hours after infection and twice daily for 4 days. Observations were made over 14 days survival times were recorded.

[5] = Urinary excretion of acyclovir after oral dosing of rats (radioimmunoassay); format: in vivo, Long Evans male rats; conditions: rat, dose 25 mg/kg, urine samples, read-out: %Dose Excreted as Acyclovir
Protocol: The following experiments carried out to determine the urinary excretion and plasma levels of acyclovir after oral dosing of rats with acyclovir, 6-deoxyacyclovir and the 6-amino analogue thereof i.e. 2,6-diamino-9-(2-hydroxyethoxymethyl)-purine, hereinafter referred to as aminoacyclovir.
Long Evans male rats were dosed by intragastric needle with the drug and placed in metabolic cages which separated urine from faeces. The collected urine and plasma samples were analyzed for acyclovir content by a radioimmunoassay.

T1 sequence (P80457 whole entry): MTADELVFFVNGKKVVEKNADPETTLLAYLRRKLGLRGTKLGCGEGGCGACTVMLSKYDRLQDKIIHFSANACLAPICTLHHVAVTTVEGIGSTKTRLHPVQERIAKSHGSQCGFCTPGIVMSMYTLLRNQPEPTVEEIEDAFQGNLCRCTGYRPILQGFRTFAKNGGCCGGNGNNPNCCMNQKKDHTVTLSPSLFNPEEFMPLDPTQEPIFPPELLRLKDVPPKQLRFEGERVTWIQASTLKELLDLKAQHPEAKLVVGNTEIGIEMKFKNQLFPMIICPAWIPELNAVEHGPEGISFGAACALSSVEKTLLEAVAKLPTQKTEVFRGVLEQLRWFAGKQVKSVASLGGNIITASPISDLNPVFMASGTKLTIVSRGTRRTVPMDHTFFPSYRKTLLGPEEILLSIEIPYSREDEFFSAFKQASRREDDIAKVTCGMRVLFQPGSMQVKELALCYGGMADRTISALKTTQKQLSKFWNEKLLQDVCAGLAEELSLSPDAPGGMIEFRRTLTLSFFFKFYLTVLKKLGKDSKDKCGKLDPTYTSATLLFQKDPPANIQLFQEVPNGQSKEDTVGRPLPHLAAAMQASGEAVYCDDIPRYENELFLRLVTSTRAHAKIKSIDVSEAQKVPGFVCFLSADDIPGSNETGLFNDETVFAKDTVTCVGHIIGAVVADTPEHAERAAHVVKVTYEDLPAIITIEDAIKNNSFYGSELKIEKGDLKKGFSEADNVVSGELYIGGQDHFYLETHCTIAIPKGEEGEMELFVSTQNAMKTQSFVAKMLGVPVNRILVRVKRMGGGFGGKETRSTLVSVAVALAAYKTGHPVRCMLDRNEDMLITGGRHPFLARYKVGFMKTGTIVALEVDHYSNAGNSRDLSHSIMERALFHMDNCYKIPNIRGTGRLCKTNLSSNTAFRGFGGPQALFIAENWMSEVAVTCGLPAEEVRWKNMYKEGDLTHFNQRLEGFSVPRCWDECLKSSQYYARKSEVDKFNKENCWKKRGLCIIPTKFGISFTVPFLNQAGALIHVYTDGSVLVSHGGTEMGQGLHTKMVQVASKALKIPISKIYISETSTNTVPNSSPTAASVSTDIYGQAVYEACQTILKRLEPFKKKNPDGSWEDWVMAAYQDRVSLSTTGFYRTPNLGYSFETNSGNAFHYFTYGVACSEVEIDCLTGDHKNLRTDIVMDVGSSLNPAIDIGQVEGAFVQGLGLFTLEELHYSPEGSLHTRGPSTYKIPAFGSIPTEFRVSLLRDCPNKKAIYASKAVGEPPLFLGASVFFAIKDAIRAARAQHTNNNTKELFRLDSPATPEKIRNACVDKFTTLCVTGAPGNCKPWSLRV

| Compound | solubility [1] [mg/mL] | effects (toxicity) [2] | rate of oxidation by the enzyme [3] | antiviral action compared with acyclovir ([4]; administered orally) | Mean Reciprocal Survival times ([4]; i.p.) | Survival Times (Days) ([4]; oral) | Mean Reciprocal Survival times ([4]; oral) | Mean Reciprocal Survival times ([4]; s.c.) | dose excreted at 48 h [5] [%] | Survival Times (Days) ([4]; i.p.) |
| --- | --- | --- | --- | --- | --- | --- | --- | --- | --- | --- |
| Nc1ncc2ncn(COCCO)c2n1 [6-Deoxyacyclovir, 2-Amino-9-(2-hydroxyethoxymethyl)-9H-purine] | 50 (≈ 239 mM) | no effects | faster rate than the 9- unsubstituted purine | more effective action than acyclovir | 0.233 | 1+2 1+4 2+5 3+6 1+8 1 survivor | 0.186 | 0.289 |  |  |
| Nc1nc2c(ncn2COCCO)c(=O)[nH]1 [Acyclovir, 9-(2-hydroxyethoxymethyl)guanine, reference compound] | 1.23 (≈ 5.46 mM) |  |  |  | 0.242 |  | 0.325 | 0.261 | 19.2 | 2+2 2+4 2+5 2+7 1 survivor |
